Measurements taken from article PMC8878317, “Chemogenomics identifies acetyl-coenzyme A synthetase as a target for malaria treatment and prevention” (Cell Chemical Biology, 2022).

Test system: P. falciparum 3D7 parasites
Test: Metabolomic profiling of compound-treated parasites (LC/MS);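 as to Metabolite data: 3-Phosphoglycerate: Log2 fold change in abundance versus untreated parasite controls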;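 as to Metabolite data: Myo-Inositol: Log2 fold change in abundance versus untreated parasite controls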;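 as to Metabolite data: N-Carbamoyl-L-Aspartate: Log2 fold change in abundance versus untreated parasite controls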;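 as to Metabolite data: Nicotinate: Log2 fold change in abundance versus untreated parasite controls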
Format: cell-based
Design: Metabolite data: dTMP / Metabolite data: GMP / Metabolite data: S-Adenosyl-L-Homocysteine / Metabolite data: 1_3-Bisphosphoglyceric acid: scale not given here
Outline: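 Magnetically purified trophozoites (1×10^8 parasites/mL) recovered 1 h in RPMI 1640, incubated a further 2.5 h, quenched in 90% methanol with labeled aspartate. Extracts analysed by reverse-phase C18 LC with negative-mode Orbitrap MS; peak areas normalized to internal standards, blank-subtracted and averaged by condition.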

With `O=C(NNC(=O)c1csnn1)c1ccc(Cl)cc1` [MMV084978-1] the “Metabolite data: 1_3-Bisphosphoglyceric acid” value was 0.1496, the “Metabolite data: 2_3-Diphosphoglyceric acid” value was 0.1496 and the “Metabolite data: 3-Phosphoglycerate” value was 0.2498. For the same compound, the “Metabolite data: 4-Aminobutyrate” value was -0.07219, the “Metabolite data: 4-Phosphopantothenate” value was -0.08759 and the “Metabolite data: 4-phosphopantetheine” value was -0.1079. For the same compound, the “Metabolite data: 5-aminopentanoic acid” value was 0, the “Metabolite data: 5-phosphoribosyl-1-pyrophosphate” value was 0 and the “Metabolite data: 6-Phospho-D-Gluconate” value was -0.01315. For the same compound, the “Metabolite data: ADP-D-Glucose” value was 0.08201, the “Metabolite data: Acetyl-CoA” value was -3.327 and the “Metabolite data: Acetyllysine” value was -0.5311. For the same compound, the “Metabolite data: Aconitate” value was -0.1935, the “Metabolite data: CDP” value was 1.05 and the “Metabolite data: CDP-Ethanolamine” value was 0.1123. The “Metabolite data: CDP-choline” value was -0.1263, the “Metabolite data: CMP” value was 1.555 and the “Metabolite data: CTP” value was 0.5959. The “Metabolite data: Citrate/Isocitrate” value was -0.25, the “Metabolite data: Cyclic-AMP” value was -0.2917 and the “Metabolite data: Dihydroorotate” value was -1.467. The “Metabolite data: FAD” value was 0.02838, the “Metabolite data: FMN” value was 0.1073 and the “Metabolite data: Fructose-1,6-Bisphosphate” value was -0.1507. For the same compound, the “Metabolite data: Fumarate” value was -0.2504, the “Metabolite data: GDP” value was 0.1753 and the “Metabolite data: GMP” value was 0.5608. For the same compound, the “Metabolite data: GTP” value was 0.3192, the “Metabolite data: Glucose-1/6-Phosphate” value was 0 and the “Metabolite data: Glutathione Disulfide” value was -0.0421. For the same compound, the “Metabolite data: Hexose” value was 0.4607, the “Metabolite data: Hydroxyisocaproic acid” value was 0 and the “Metabolite data: Indole” value was -0.02938. For the same compound, the “Metabolite data: Ketoleucine” value was 0, the “Metabolite data: L-arginino-succinate” value was -0.1583 and the “Metabolite data: Lactate” value was -0.4518. For the same compound, the “Metabolite data: Malate” value was -0.3092, the “Metabolite data: Myo-Inositol” value was -0.662 and the “Metabolite data: N-Acetyl-Glutamate” value was -1.234. For the same compound, the “Metabolite data: N-Acetyl-L-Alanine” value was -0.1942, the “Metabolite data: N-Acetyl-L-Ornithine” value was -0.6079 and the “Metabolite data: N-Carbamoyl-L-Aspartate” value was -1.86. The “Metabolite data: NAD+” value was -0.05754, the “Metabolite data: NADH” value was -0.03997 and the “Metabolite data: NADP+” value was -0.01332. The “Metabolite data: NADPH” value was -0.02772, the “Metabolite data: Nicotinate” value was -0.2079 and the “Metabolite data: Octulose 8/1-Phosphate” value was 0.04337. For the same compound, the “Metabolite data: Orotate” value was -1.48, the “Metabolite data: PD” value was -0.5076 and the “Metabolite data: PE” value was -0.5728. For the same compound, the “Metabolite data: PEEK” value was -0.4082, the “Metabolite data: Phenol Red” value was -0.09162 and the “Metabolite data: Pyroglutamic acid” value was -0.04117. For the same compound, the “Metabolite data: S-Adenosyl-L-Homocysteine” value was -0.1413, the “Metabolite data: S-methyl-5'-thioadenosine” value was -0.2314 and the “Metabolite data: SD” value was -0.5901. The “Metabolite data: Sedoheptulose Bisphosphate” value was -0.08586, the “Metabolite data: UDP” value was 0.6291 and the “Metabolite data: UDP-D-Glucose” value was 0.0869. The “Metabolite data: UDP-D-Glucuronate” value was 0.1009, the “Metabolite data: UDP-N-Acetyl-Glucosamine” value was -0.1998 and the “Metabolite data: UMP” value was 1.083. The “Metabolite data: UTP” value was 0.2924, the “Metabolite data: a-ketoglutarate” value was -0.2708 and the “Metabolite data: acetyl-aspartate” value was -0.01834. The “Metabolite data: arginine” value was 0.1881, the “Metabolite data: asparagine” value was 0.1209 and the “Metabolite data: aspartate” value was 0.4643. For the same compound, the “Metabolite data: biotin” value was -0.04446, the “Metabolite data: chlorpropamide” value was -1.60E-16 and the “Metabolite data: coenzyme A” value was -0.006892. The “Metabolite data: dAMP” value was 0.6117, the “Metabolite data: dATP” value was 0.1596 and the “Metabolite data: dCDP” value was -0.02418. For the same compound, the “Metabolite data: dCMP” value was 0.3076, the “Metabolite data: dCTP” value was 0.1432 and the “Metabolite data: dGDP/ADP” value was -0.04263. For the same compound, the “Metabolite data: dGMP/AMP” value was -0.1821, the “Metabolite data: dGTP/ATP” value was 0.1752 and the “Metabolite data: dTDP” value was 0.5413. For the same compound, the “Metabolite data: dTMP” value was 0.4313, the “Metabolite data: dTTP” value was 0.1959 and the “Metabolite data: folate” value was -0.04496. For the same compound, the “Metabolite data: glucono-lactone” value was -0.03642, the “Metabolite data: glutamate” value was -0.04994 and the “Metabolite data: glutamine” value was 0.01906. For the same compound, the “Metabolite data: glutathione” value was -0.07032, the “Metabolite data: histidine” value was -0.03336 and the “Metabolite data: hydroxyproline/Aminolevulinate” value was -0.01874. For the same compound, the “Metabolite data: isoleucine” value was 0.003243, the “Metabolite data: leucine” value was -0.0173 and the “Metabolite data: maleic acid” value was -0.282. For the same compound, the “Metabolite data: methionine” value was 0.1423, the “Metabolite data: nicotinamide mononucleotide” value was -0.4705 and the “Metabolite data: orotidine-5'-phosphate” value was -2.397.
